US4864023A, “Pyrido(3,2,1-IJ)-1,3,4-benzoxadiazine derivatives” (priority 1988, dated 1989)
In brackets after ≈: the same amount, converted by molar mass.

Tests used:
[1] = system: Staphylococcus aureus NR 2855; test: in vitro antibacterial activity, standard agar dilution method; type: cell-based; settings: NR2855; Staphylococcus aureus NR 2855; aerobic; agar dilution; read-out: minimum inhibitory concentration (MIC)
[2] = acute toxicity by oral administration; settings: mouse, in vivo; oral administration, ICR mice; read-out: LD50
Description: The acute toxicity of these compounds was examined by oral administration in ICR mice.

[3] = system: Bordetella bronchiseptica ATCC 4617; test: in vitro antibacterial activity, standard agar dilution method; type: cell-based; settings: ATCC4617, aerobic, read-out: minimum inhibitory concentration (MIC)
[4] = system: Enterococcus faecalis NR 2943; test: as above; type: cell-based; settings: NR2943, aerobic, read-out: minimum inhibitory concentration (MIC)
[5] = system: Enterobacter aerogenes NR 2945; test: as above; type: cell-based; settings: Klebsiella aerogenes, NR2945, aerobic, read-out: minimum inhibitory concentration (MIC)
[6] = system: Serratia marcescens IFO 12648; test: as above; type: cell-based; settings: IFO12648, aerobic, read-out: minimum inhibitory concentration (MIC)
[7] = system: Proteus rettgeri ATCC 14505; test: as above; type: cell-based; settings: Providencia rettgeri, ATCC14505, aerobic, read-out: minimum inhibitory concentration (MIC)
[8] = system: Pseudomonas aeruginosa NR 2950; test: as above; type: cell-based; settings: NR2950, aerobic, read-out: minimum inhibitory concentration (MIC)
[9] = system: Salmonella typhimurium IFO 12529; test: as above; type: cell-based; settings: Salmonella enterica, aerobic, read-out: minimum inhibitory concentration (MIC)
[10] = system: Staphylococcus aureus FDA 209P JC-1; test: as above; type: cell-based; settings: FDA209P; Staphylococcus aureus FDA 209P JC-1; aerobic; agar dilution; read-out: minimum inhibitory concentration (MIC)
[11] = system: Escherichia coli NIHJ JC-2; test: as above; type: cell-based; settings: NIHJJC2, aerobic, read-out: minimum inhibitory concentration (MIC)
[12] = system: Citrobacter freundii IFO 12681; test: as above; type: cell-based; settings: IFO12681, aerobic, read-out: minimum inhibitory concentration (MIC)
[13] = system: Staphylococcus epidermidis IFO 12993; test: as above; type: cell-based; settings: IFO12993, aerobic, read-out: minimum inhibitory concentration (MIC)
[14] = system: Staphylococcus aureus Smith; test: as above; type: cell-based; settings: Staphylococcus aureus Smith; aerobic; agar dilution; read-out: minimum inhibitory concentration (MIC)
[15] = system: Pseudomonas stutzeri IFO 12695; test: as above; type: cell-based; settings: Stutzerimonas stutzeri, IFO12695, aerobic, read-out: minimum inhibitory concentration (MIC)
[16] = system: Alcaligenes faecalis IFO 13111; test: as above; type: cell-based; settings: IFO13111, aerobic, read-out: minimum inhibitory concentration (MIC)
[17] = system: Enterobacter cloacae NR 2946; test: as above; type: cell-based; settings: NR2946, aerobic, read-out: minimum inhibitory concentration (MIC)
[18] = system: Staphylococcus epidermidis NR 2942; test: as above; type: cell-based; settings: NR2942, aerobic, read-out: minimum inhibitory concentration (MIC)
[19] = system: Bacillus subtilis PCI 219; test: as above; type: cell-based; settings: PCI219, aerobic, read-out: minimum inhibitory concentration (MIC)
[20] = system: Pseudomonas aeruginosa A3; test: as above; type: cell-based; settings: aerobic, read-out: minimum inhibitory concentration (MIC)
Escherichia coli NR 2630 = test: as above; type: cell-based; settings: NR2630; Escherichia coli NR 2630; aerobic; agar dilution; read-out: minimum inhibitory concentration (MIC)
[21] = system: Proteus vulgaris OX19 ATCC 6898; test: as above; type: cell-based; settings: ATCC6898, aerobic, read-out: minimum inhibitory concentration (MIC)
[22] = system: Klebsiella pneumoniae FDA PCI 602; test: as above; type: cell-based; settings: FDAPCI602, aerobic, read-out: minimum inhibitory concentration (MIC)

Question: Which MIC [1] does the source give for `CNCC1CCN(c2c(F)cc3c(=O)c(C(=O)O)cn4c3c2OCN4C)C1` (stereo not shown) [Example 17, 9-fluoro-3-methyl-10-[3-[(methylamino)methyl]-1-pyrrolidinyl]-7-oxo-2,3-dihydro-7H-pyrido[3,2,1-ij]-1,3,4-benzoxadiazine-6-carboxylic acid] here?
Answer: 0.2 µg/mL (≈ 0.531 µM)

Question: What about the LD50 [2] of the same compound?
Answer: > 2000 mg/kg

Question: And the MIC [3]?
Answer: 6.25 µg/mL (≈ 16.6 µM)

Question: What about the MIC [4] of the same compound?
Answer: 1.56 µg/mL (≈ 4.14 µM)

Question: What about the MIC [5] of the same compound?
Answer: 0.05 µg/mL (≈ 0.133 µM)

Question: And the MIC [6]?
Answer: 0.78 µg/mL (≈ 2.07 µM)

Question: What about the MIC [7] of the same compound?
Answer: 1.56 µg/mL (≈ 4.14 µM)

Question: What about the MIC [8] of the same compound?
Answer: 6.25 µg/mL (≈ 16.6 µM)

Question: And the MIC [9]?
Answer: 0.05 µg/mL (≈ 0.133 µM)

Question: And the MIC [10]?
Answer: 0.05 µg/mL (≈ 0.133 µM)

Question: What about the MIC [11] of the same compound?
Answer: 0.1 µg/mL (≈ 0.266 µM)

Question: And the MIC [12]?
Answer: 0.2 µg/mL (≈ 0.531 µM)

Question: And the MIC [13]?
Answer: 0.2 µg/mL (≈ 0.531 µM)

Question: And the MIC [14]?
Answer: 0.025 µg/mL (≈ 0.0664 µM)

Question: What about the MIC [15] of the same compound?
Answer: 0.025 µg/mL (≈ 0.0664 µM)

Question: And the MIC [16]?
Answer: 6.25 µg/mL (≈ 16.6 µM)

Question: And the MIC [17]?
Answer: 0.1 µg/mL (≈ 0.266 µM)

Question: What about the MIC [18] of the same compound?
Answer: 0.1 µg/mL (≈ 0.266 µM)

Question: And the MIC [19]?
Answer: 0.013 µg/mL (≈ 0.0345 µM)

Question: And the MIC [20]?
Answer: 0.39 µg/mL (≈ 1.04 µM)

Question: What about the MIC (Escherichia coli NR 2630) of the same compound?
Answer: 0.025 µg/mL (≈ 0.0664 µM)

Question: And the MIC [21]?
Answer: 0.025 µg/mL (≈ 0.0664 µM)

Question: And the MIC [22]?
Answer: 0.78 µg/mL (≈ 2.07 µM)

Question: For `CCNCC1CCN(c2c(F)cc3c(=O)c(C(=O)O)cn4c3c2OCN4C)C1` (stereo not shown) [Example 18], which MIC [1] is on record?
Answer: 0.1 µg/mL (≈ 0.256 µM)

Question: And the LD50 [2]?
Answer: > 2000 mg/kg

Question: What about the MIC [3] of the same compound?
Answer: 3.13 µg/mL (≈ 8.02 µM)

Question: What about the MIC [4] of the same compound?
Answer: 1.56 µg/mL (≈ 4 µM)

Question: And the MIC [5]?
Answer: 0.05 µg/mL (≈ 0.128 µM)

Question: And the MIC [6]?
Answer: 0.39 µg/mL (≈ 0.999 µM)

Question: And the MIC [7]?
Answer: 0.39 µg/mL (≈ 0.999 µM)

Question: What about the MIC [8] of the same compound?
Answer: 6.25 µg/mL (≈ 16 µM)

Question: What about the MIC [9] of the same compound?
Answer: 0.025 µg/mL (≈ 0.064 µM)

Question: And the MIC [10]?
Answer: 0.05 µg/mL (≈ 0.128 µM)

Question: And the MIC [11]?
Answer: 0.05 µg/mL (≈ 0.128 µM)

Question: And the MIC [12]?
Answer: 0.1 µg/mL (≈ 0.256 µM)

Question: And the MIC [13]?
Answer: 0.1 µg/mL (≈ 0.256 µM)

Question: What about the MIC [14] of the same compound?
Answer: 0.025 µg/mL (≈ 0.064 µM)

Question: And the MIC [15]?
Answer: 0.025 µg/mL (≈ 0.064 µM)

Question: And the MIC [16]?
Answer: 6.25 µg/mL (≈ 16 µM)

Question: What about the MIC [17] of the same compound?
Answer: 0.05 µg/mL (≈ 0.128 µM)

Question: What about the MIC [18] of the same compound?
Answer: 0.1 µg/mL (≈ 0.256 µM)

Question: What about the MIC [19] of the same compound?
Answer: 0.013 µg/mL (≈ 0.0333 µM)

Question: And the MIC [20]?
Answer: 0.78 µg/mL (≈ 2 µM)

Question: And the MIC (Escherichia coli NR 2630)?
Answer: 0.013 µg/mL (≈ 0.0333 µM)

Question: What about the MIC [21] of the same compound?
Answer: 0.025 µg/mL (≈ 0.064 µM)

Question: What about the MIC [22] of the same compound?
Answer: 0.39 µg/mL (≈ 0.999 µM)
